Test system: Ruminal epithelium of sheep
Experiment: Measurement of Ca-flux (45Ca2+ net flux) across ruminal epithelium in the Ussing chamber
Type: cell-based
Procedure: Measurement of Ca-Flux Across Ruminal Epithelium in the Ussing-Chamber
Ruminal epithelium of sheep was mounted in a conventional Ussing chamber. Chambers contained 16 ml of serosal or mucosal buffer, which was circulated and gassed by a gas lift system (5% CO2/95% O2).
In this experiment 24 chambers were divided into three groups. Group 1 (mucosal buffer containing 1.8 mM CaCl2), group 2 (mucosal buffer containing 3.6 mM CaCl2) and group 3 (containing 7.2 mM CaCl2). The same buffer was present on the serosal side of all chambers (Table 1). Each group (1,2,3) was again divided into two parts. One was defined as control group one as EO group. It is noted that the amounts correspond to a normal Ca^2+ concentration in the rumen (1.8 mM) (referred to as Comparative Example A) and to treated rumen corresponding to the administration of about 13 g Ca (3.6 mM) and 26 g Ca (7.2 mM) (referred to as Examples 1 and 2, respectively).
After an equilibrating time of around 30 minutes ^45Ca^2+ (40 kBq per 16 ml chamber) was added to either to the mucosal or serosal “hot” side.
Depending on the group 16 μl ethanol (Control) or 16 μl essential oil (EO) were added to the mucosal side of the chamber. The essential oil used is menthol, and the actual menthol concentration obtained is 50 μM.
After 70 minutes the first sample from the “cold” side was taken, followed by five samples of each 900 μl which were taken in an interval of 30 minutes. The sample volume was replaced by an aliquot of the respective buffer. Radioactivity was measured using a β-counter (LKB Wallace-Perkin-Elmer, Überlingen, Germany).
Epithelia were paired after sorting for transepithelial conductance (Gt) and the net calcium flux was calculated from the difference between mucosal to serosal flux and serosal to mucosal flux for paired epithelia.
The net transport of calcium across the isolated ruminal epithelium was calculated by subtracting the calcium secretion (serosal to mucosal transport) from the calcium absorption (mucosal to serosal transport) reflecting the real absorption of calcium from the rumen to the blood side. For statistical analysis linear mixed effect models for repeated measures were calculated using mucosal calcium concentration and the addition of essential oils as fixed effects and animal as random effect (SAS System, method MIXED PROC). The effects of calcium concentration and the addition of essential oils was calculated as well as their interaction. Furthermore, the effect of sampling time was included to the model. Effects were evaluated for the repeated measures of the consecutive flux periods.

Q: With `CC1CCC(C(C)C)C(O)C1` (stereo not shown) [menthol] as the molecule, how does the “calcium flux compared to the control (in words)” value (all three Ca concentrations (1.8, 3.6, 7.2 mM), menthol present) read?
A: increased

Q: What about the “increase of calcium absorption by addition of EO” value (“increase of calcium absorption” for short) (mucosal Ca 1.8 mM) of the same molecule?
A: 6.06 nmol/cm^2/h

Q: What about the “increase of calcium absorption” value (mucosal Ca 3.6 mM) of the same molecule?
A: 2.52 nmol/cm^2/h

Q: And the “increase of calcium absorption” value (mucosal Ca 7.2 mM)?
A: 8.22 nmol/cm^2/h

From patent US20210353668A1, “CALCIUM COMPOSITION” (PerformaNat GmbH, priority 2018, published 2021)
